# Assay results reported in patent US12240837B2, “Chemokine receptor modulators and uses thereof” (RAPT THERAPEUTICS, INC., priority 2022, dated 2025).
# Molecular target: T1, CCR4 receptor (Homo sapiens, UniProt P51679)
# T1 construct: beta-galactosidase enzyme-fragment tag (receptor modification for beta-arrestin complementation); expressed in transfected cells; host or cells: CHO-K1
# T1 sequence (P51679 1-360): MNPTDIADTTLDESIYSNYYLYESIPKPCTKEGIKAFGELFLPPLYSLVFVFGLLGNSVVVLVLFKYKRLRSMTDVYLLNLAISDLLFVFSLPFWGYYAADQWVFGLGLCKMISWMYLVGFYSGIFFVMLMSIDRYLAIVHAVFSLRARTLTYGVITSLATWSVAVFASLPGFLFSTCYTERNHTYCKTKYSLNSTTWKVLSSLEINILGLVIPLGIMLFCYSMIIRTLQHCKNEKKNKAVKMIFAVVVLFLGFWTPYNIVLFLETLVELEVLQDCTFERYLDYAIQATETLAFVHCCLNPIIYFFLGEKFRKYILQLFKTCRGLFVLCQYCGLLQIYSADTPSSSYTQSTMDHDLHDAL
# Experiment: CCR4 antagonist activity in beta-arrestin cellular assay (PathHunter chemiluminescence)
# Assay type: cell-based
# Settings: CHO-K1 cells expressing CCR4; 30 min pre-incubation; CCL22 challenge at EC80 (15 nM) for 90 minutes; read-out: Potency (CCR4 antagonist IC50 in the β-arrestin assay)
# Description: CCR4 Antagonistic Activity was assessed in Beta-Arrestin Cellular Assay. Compounds were assessed in CHO-K1 cells expressing the CCR4 receptor modified to enable β-glactosidase detection of p-arrestin agonist activity stimulated by CCL22 in a chemiluminescence assay. Cells were seeded in a total volume of 20 μL into white walled, 384-well microplates and incubated at 37° C. prior to testing. Cells were pre-incubated with test compound for 30 min at 37° C. followed by agonist challenge with CCL22 at the EC80 concentration (15 nM) for 90 minutes. Assay signal was generated through a single addition of 12.5 or 15 μL (50% v/v) of PathHunter Detection reagent cocktail, followed by a one hour incubation at room temperature. Microplates were read following signal generation with a PerkinElmer Envision™ instrument for chemiluminescent signal detection. Antagonist activity was analyzed using CBIS data analysis suite (ChemInnovation, CA). Antagonist activity was characterized as percentage inhibition calculated using the following formula: % Inhibition=100%×(1−(mean RLU of test sample−mean RLU of vehicle control)/(mean RLU of EC80 control−mean RLU of vehicle control)).
# An IC50 of >500 nM is designated as Potency C, an IC50 of between 500 nM and 200 nM is designated as Potency B and an IC50 of <200 nM is designated as Potency A.
row,IC50 [nM],Structure (SMILES)
1,< 200,"Cc1nc(N2CCC(C3CCCN(CCC(=O)O)C3)CC2)nc(N[C@H](C)c2ccc(Cl)cc2Cl)c1Cl (stereo partly drawn) [Example 17, 3-(1′-(5-chloro-4-(((R)-1-(2,4-dichlorophenyl)ethyl)amino)-6-methylpyrimidin-2-yl)-[3,4′-bipiperidin]-1-yl)propanoic Acid]"
2,< 200,"Cc1nc(N2CCC(C3CCCN(C4CC(C(=O)O)C4)C3)CC2)nc(N[C@H](C)c2ccc(Cl)cc2Cl)c1Cl (stereo partly drawn) [Example 13, 3-(1′-(5-chloro-4-(((R)-1-(2,4-dichlorophenyl)ethyl)amino)-6-methylpyrimidin-2-yl)-[3,4′-bipiperidin]-1-yl)cyclobutane-1-carboxylic Acid]"
3,< 200,"C[C@@H](Nc1nc(N2CCC(C3CCCCN3)C2)ncc1Cl)c1ccc(Cl)cc1Cl (mixture of isomers) [Example 8, 5-chloro-N—((R)-1-(2,4-dichlorophenyl)ethyl)-2-(3-(piperidin-2-yl)pyrrolidin-1-yl)pyrimidin-4-amine]"
4,200 to 500,"C[C@@H](Nc1nc(N2CCC(C3CCN(C4CC(C)(C(=O)O)C4)C3)C2)ncc1Cl)c1ccc(Cl)cc1Cl (stereo partly drawn) [Example 7, 3-(1′-(5-chloro-4-(((R)-1-(2,4-dichlorophenyl)ethyl)amino)pyrimidin-2-yl)-[3,3′-bipyrrolidin]-1-yl)-1-methylcyclobutane-1-carboxylic Acid]"
5,< 200,"Cc1nc(N2CCC(C3CCCN(C4CC(C)(C(=O)O)C4)C3)CC2)nc(N[C@H](C)c2ccc(Cl)cc2Cl)c1Cl (stereo partly drawn) [Example 2, 3-(1′-(5-chloro-4-(((R)-1-(2,4-dichlorophenyl)ethyl)amino)-6-methylpyrimidin-2-yl)-[3,4′-bipiperidin]-1-yl)-1-methylcyclobutane-1-carboxylic Acid]"
6,< 200,"C[C@@H](Nc1nc(N2CCC(C3CCCN(CCC(=O)O)C3)CC2)ncc1Cl)c1ccc(Cl)cc1Cl (stereo partly drawn) [Example 16, 3-(1′-(5-chloro-4-(((R)-1-(2,4-dichlorophenyl)ethyl)amino)pyrimidin-2-yl)-[3,4′-bipiperidin]-1-yl)propanoic Acid]"
7,200 to 500,"Cc1nc(N2CCC(C3CCCCN3)C2)nc(N[C@H](C)c2ccc(Cl)cc2Cl)c1Cl (mixture of isomers) [Example 10, 5-chloro-N—((R)-1-(2,4-dichlorophenyl)ethyl)-6-methyl-2-(3-(piperidin-2-yl)pyrrolidin-1-yl)pyrimidin-4-amine]"
8,< 200,"Cc1nc(N2CCC(C3CCCN(C4CC(C)(C(=O)O)C4)C3)C2)nc(N[C@H](C)c2ccc(Cl)cc2Cl)c1Cl (stereo partly drawn) [Example 1, 3-(3-(1-(5-chloro-4-(((R)-1-(2,4-dichlorophenyl)ethyl)amino)-6-methylpyrimidin-2-yl)pyrrolidin-3-yl)piperidin-1-yl)-1-methylcyclobutane-1-carboxylic Acid]"
9,> 500,"Cc1nc(N2CCC(C3CN(C4CC(C)(C(=O)O)C4)C3)C2)nc(N[C@H](C)c2ccc(Cl)cc2Cl)c1Cl (mixture of isomers) [Example 3, 3-(3-(1-(5-chloro-4-(((R)-1-(2,4-dichlorophenyl)ethyl)amino)-6-methylpyrimidin-2-yl)pyrrolidin-3-yl)azetidin-1-yl)-1-methylcyclobutane-1-carboxylic Acid]"
10,< 200,"CC(C(=O)O)N1CCCC(C2CCN(c3ncc(Cl)c(N[C@H](C)c4ccc(Cl)cc4Cl)n3)CC2)C1 (stereo partly drawn) [Example 15, 2-(1′-(5-chloro-4-(((R)-1-(2,4-dichlorophenyl)ethyl)amino)pyrimidin-2-yl)-[3,4′-bipiperidin]-1-yl)propanoic Acid]"
11,200 to 500,"Cc1nc(N2CCC(C3CCCCN3C3CC(C)(C(=O)O)C3)C2)nc(N[C@H](C)c2ccc(Cl)cc2Cl)c1Cl (stereo partly drawn) [Example 11, 3-(2-(1-(5-chloro-4-(((R)-1-(2,4-dichlorophenyl)ethyl)amino)-6-methylpyrimidin-2-yl)pyrrolidin-3-yl)piperidin-1-yl)-1-methylcyclobutane-1-carboxylic Acid]"
12,< 200,"C[C@@H](Nc1nc(N2CCC(C3CCCN(C4CC(C(=O)O)C4)C3)CC2)ncc1Cl)c1ccc(Cl)cc1Cl (stereo partly drawn) [Example 12, 3-(1′-(5-chloro-4-(((R)-1-(2,4-dichlorophenyl)ethyl)amino)pyrimidin-2-yl)-[3,4′-bipiperidin]-1-yl)cyclobutane-1-carboxylic Acid]"
13,< 200,"C[C@@H](Nc1nc(N2CCC(C3CCCCN3C3CC(C)(C(=O)O)C3)C2)ncc1Cl)c1ccc(Cl)cc1Cl (stereo partly drawn) [Example 9, 3-(2-(1-(5-chloro-4-(((R)-1-(2,4-dichlorophenyl)ethyl)amino)pyrimidin-2-yl)pyrrolidin-3-yl)piperidin-1-yl)-1-methylcyclobutane-1-carboxylic Acid]"
14,< 200,"Cc1nc(N2CCC(C3CCCN(C(C)C(=O)O)C3)CC2)nc(N[C@H](C)c2ccc(Cl)cc2Cl)c1Cl (stereo partly drawn) [Example 14, 2-(1′-(5-chloro-4-(((R)-1-(2,4-dichlorophenyl)ethyl)amino)-6-methylpyrimidin-2-yl)-[3,4′-bipiperidin]-1-yl)propanoic Acid]"
15,< 200,"C[C@@H](Nc1nc(N2CCC(C3CCCN(C4CC(C)(C(=O)O)C4)C3)C2)ncc1Cl)c1ccc(Cl)cc1Cl (stereo partly drawn) [Example 5, 3-(3-(1-(5-chloro-4-(((R)-1-(2,4-dichlorophenyl)ethyl)amino)pyrimidin-2-yl)pyrrolidin-3-yl)piperidin-1-yl)-1-methylcyclobutane-1-carboxylic Acid]"
16,< 200,"C[C@@H](Nc1nc(N2CCC(C3CCCN(C4CC(C)(C(=O)O)C4)C3)CC2)ncc1Cl)c1ccc(Cl)cc1Cl (mixture of isomers) [Example 6, 3-(1′-(5-chloro-4-(((R)-1-(2,4-dichlorophenyl)ethyl)amino)pyrimidin-2-yl)-[3,4′-bipiperidin]-1-yl)-1-methylcyclobutane-1-carboxylic Acid]"
17,200 to 500,"Cc1nc(N2CCC(C3CCN(C4CC(C)(C(=O)O)C4)C3)C2)nc(N[C@H](C)c2ccc(Cl)cc2Cl)c1Cl (stereo partly drawn) [Example 4, 3-(1′-(5-chloro-4-(((R)-1-(2,4-dichlorophenyl)ethyl)amino)-6-methylpyrimidin-2-yl)-[3,3′-bipyrrolidin]-1-yl)-1-methylcyclobutane-1-carboxylic Acid]"
